Test results as given in patent US12540131B2 (Merck Sharp & Dohme LLC, priority 2019, dated 2026).

Biological target: GST tagged truncated human mutant G2019S LRRK2 (Homo sapiens (Human), UniProt Q5S007, G2019S)
Test: LRRK2 Km ATP LanthaScreen Assay
Type: biochemical
Conditions: G2019S LRRK2, 134 μM ATP (Km ATP), mean values; for IC50: read-out: LRRK2 pIC50 (converted)
Method in brief: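 Enzyme (GST-tagged, truncated) was preincubated with compound for 15 min at RT in 50 mM Tris pH 8.5, 10 mM MgCl2, 0.01% Brij-35, 1 mM EGTA, 2 mM DTT and 0.05 mM orthovanadate. Fluorescein-LRRKtide and 134 μM ATP (Km) were then added for 90 min. EDTA and Tb-anti-pERM antibody stopped the reaction; the TR-FRET 520/495 ratio gave 4-parameter IC50s, reported as mean pIC50.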

Sequence of GST tagged truncated human mutant G2019S LRRK2 (Q5S007 970-2527 G2019S): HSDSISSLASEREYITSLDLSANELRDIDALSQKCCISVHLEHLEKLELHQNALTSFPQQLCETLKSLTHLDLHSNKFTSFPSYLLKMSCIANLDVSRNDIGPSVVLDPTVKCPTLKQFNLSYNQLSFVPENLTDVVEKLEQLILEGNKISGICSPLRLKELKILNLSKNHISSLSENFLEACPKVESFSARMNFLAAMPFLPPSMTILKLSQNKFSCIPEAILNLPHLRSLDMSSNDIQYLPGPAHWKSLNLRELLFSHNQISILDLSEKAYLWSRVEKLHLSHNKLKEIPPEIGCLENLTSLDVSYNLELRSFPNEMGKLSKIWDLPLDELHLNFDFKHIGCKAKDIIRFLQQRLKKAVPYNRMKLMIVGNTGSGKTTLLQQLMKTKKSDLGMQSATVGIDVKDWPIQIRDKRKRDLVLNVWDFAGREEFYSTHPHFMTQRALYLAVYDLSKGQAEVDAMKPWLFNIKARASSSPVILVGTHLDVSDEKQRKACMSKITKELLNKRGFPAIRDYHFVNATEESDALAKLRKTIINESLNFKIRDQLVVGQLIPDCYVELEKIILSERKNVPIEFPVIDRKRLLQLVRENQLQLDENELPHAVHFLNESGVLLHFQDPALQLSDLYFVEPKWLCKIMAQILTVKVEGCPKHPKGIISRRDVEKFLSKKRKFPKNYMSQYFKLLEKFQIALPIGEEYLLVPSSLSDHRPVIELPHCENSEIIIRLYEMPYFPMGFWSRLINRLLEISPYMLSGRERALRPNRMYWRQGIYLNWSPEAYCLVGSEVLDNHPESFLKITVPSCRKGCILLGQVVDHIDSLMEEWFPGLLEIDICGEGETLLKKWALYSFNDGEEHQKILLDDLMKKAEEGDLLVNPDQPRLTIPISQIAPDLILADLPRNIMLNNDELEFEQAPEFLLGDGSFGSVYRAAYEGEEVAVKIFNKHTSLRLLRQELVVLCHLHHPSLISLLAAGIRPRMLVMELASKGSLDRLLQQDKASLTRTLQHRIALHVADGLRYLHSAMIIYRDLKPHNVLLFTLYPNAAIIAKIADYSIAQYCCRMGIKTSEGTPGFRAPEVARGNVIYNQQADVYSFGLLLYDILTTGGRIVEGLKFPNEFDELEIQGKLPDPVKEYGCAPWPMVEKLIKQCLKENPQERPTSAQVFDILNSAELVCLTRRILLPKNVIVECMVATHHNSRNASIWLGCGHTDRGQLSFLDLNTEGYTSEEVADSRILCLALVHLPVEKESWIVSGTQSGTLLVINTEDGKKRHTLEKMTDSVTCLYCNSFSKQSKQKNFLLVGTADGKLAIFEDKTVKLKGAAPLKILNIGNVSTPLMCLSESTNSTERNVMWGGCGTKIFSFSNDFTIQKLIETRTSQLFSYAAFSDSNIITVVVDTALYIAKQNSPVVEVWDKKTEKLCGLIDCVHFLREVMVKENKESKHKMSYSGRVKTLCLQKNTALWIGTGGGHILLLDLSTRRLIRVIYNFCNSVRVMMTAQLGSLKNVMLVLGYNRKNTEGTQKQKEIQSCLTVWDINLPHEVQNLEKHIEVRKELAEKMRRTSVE

Row | Structure (SMILES) | LRRK2 pIC50 | IC50 [nM]
1 | CC1OCC1N1CCC(c2cc3nc(Nc4cnn(C5CC5)c4Cl)ncc3cc2Cl)CC1 (single isomer, unassigned) [Ex-4.46, (2R,3R) or (2S,3S) or (2S,3R) or (2R,3S) 6-chloro-N-(5-chloro-1-cyclopropyl-1H-pyrazol-4-yl)-7-[1-(2-methyloxetan-3-yl)piperidin-4-yl]quinazolin-2-amine] | 9.13 | –
2 | CC1OCC1N1CCC(c2cc3nc(Nc4cnn(C5CC5)c4Cl)ncc3cc2Cl)CC1 (single isomer, unassigned) [Ex-4.47, (2R,3R) or (2S,3S) or (2S,3R) or (2R,3S) 6-chloro-N-(5-chloro-1-cyclopropyl-1H-pyrazol-4-yl)-7-[1-(2-methyloxetan-3-yl)piperidin-4-yl]quinazolin-2-amine] | 7.62 | –
3 | Clc1cc2cnc(Nc3cnn(C4CC4)c3Cl)nc2cc1C1CCN(C2CCOC2)CC1 (single isomer, unassigned) [Ex-4.48, (S) or (R) 6-chloro-N-(5-chloro-1-cyclopropyl-1H-pyrazol-4-yl)-7-[1-(oxolan-3-yl)piperidin-4-yl]quinazolin-2-amine] | – | 0.891
4 | Clc1cc2cnc(Nc3cnn(C4CC4)c3Cl)nc2cc1C1CCN(C2CCOC2)CC1 (single isomer, unassigned) [Ex-4.49, (S) or (R) 6-chloro-N-(5-chloro-1-cyclopropyl-1H-pyrazol-4-yl)-7-[1-(oxolan-3-yl)piperidin-4-yl]quinazolin-2-amine] | – | < 0.631
5 | Cc1cc(Nc2ncc3cc(Cl)c([C@@H]4CCN(C5COC5)C[C@H]4F)cc3n2)sn1 (single isomer, unassigned) [Ex-4.50, (3S,4S) or (3R,4R) 6-chloro-7-[3-fluoro-1-(oxetan-3-yl)piperidin-4-yl]-N-(3-methyl-1,2-thiazol-5-yl)quinazolin-2-amine] | >9.20 | –
6 | Cc1cc(Nc2ncc3cc(Cl)c([C@H]4CCN(C5COC5)C[C@@H]4F)cc3n2)sn1 (single isomer, unassigned) [Ex-4.51, (3S,4S) or (3R,4R) 6-chloro-7-[3-fluoro-1-(oxetan-3-yl)piperidin-4-yl]-N-(3-methyl-1,2-thiazol-5-yl)quinazolin-2-amine] | >9.20 | –
7 | Cc1cc(Nc2ncc3cc(Cl)c([C@H]4CCN(C)C[C@@H]4F)cc3n2)sn1 (single isomer, unassigned) [Ex-4.53, (3S,4S) or (3R,4R) 6-chloro-7-(3-fluoro-1-methylpiperidin-4-yl)-N-(3-methyl-1,2-thiazol-5-yl)quinazolin-2-amine] | >9.20 | –
8 | CC(n1ncc(Nc2ncc3cc(Cl)c([C@@H]4CCN(C)C[C@H]4F)cc3n2)c1Cl)C(C)(C)O (single isomer, unassigned) [Ex-4.60, (R)(3S,4S) or (R)(3R,4R) or (S)(3S,4S) or (S)(3R,4R) 3-(5-chloro-4-{[6-chloro-7-(3-fluoro-1-methylpiperidin-4-yl)quinazolin-2-yl]amino}-1H-pyrazol-1-yl)-2-methylbutan-2-ol] | 8.69 | –
9 | CC(n1ncc(Nc2ncc3cc(Cl)c([C@@H]4CCN(C)C[C@H]4F)cc3n2)c1Cl)C(C)(C)O (single isomer, unassigned) [Ex-4.61, (R)(3S,4S) or (R)(3R,4R) or (S)(3S,4S) or (S)(3R,4R) 3-(5-chloro-4-{[6-chloro-7-(3-fluoro-1-methylpiperidin-4-yl)quinazolin-2-yl]amino}-1H-pyrazol-1-yl)-2-methylbutan-2-ol] | 8.80 | –
10 | CC(n1ncc(Nc2ncc3cc(Cl)c(C4CCN(C5COC5)CC4)cc3n2)c1Cl)C(C)(C)O (single isomer, unassigned) [Ex-4.62, (8) or (R) 3-[5-chloro-4-({6-chloro-7-[1-(oxetan-3-yl)piperidin-4-yl]quinazolin-2-yl}amino)-1H-pyrazol-1-yl]-2-methylbutan-2-ol] | >9.20 | –
11 | Cc1c(Nc2ncc3cc(Cl)c([C@@H]4CCN(C5COC5)C[C@H]4F)cc3n2)cnn1CC(C)(C)O (single isomer, unassigned) [Ex-4.63, (3S,4S) or (3R,4R) 1-[4-({6-chloro-7-[3-fluoro-1-(oxetan-3-yl)piperidin-4-yl]quinazolin-2-yl}amino)-5-methyl-1H-pyrazol-1-yl]-2-methylpropan-2-ol] | 8.83 | –
12 | Cc1c(Nc2ncc3cc(Cl)c([C@H]4CCN(C5COC5)C[C@@H]4F)cc3n2)cnn1CC(C)(C)O (single isomer, unassigned) [Ex-4.64, (3S,4S) or (3R,4R) 1-[4-({6-chloro-7-[3-fluoro-1-(oxetan-3-yl)piperidin-4-yl]quinazolin-2-yl}amino)-5-methyl-1H-pyrazol-1-yl]-2-methylpropan-2-ol] | 8.85 | –
13 | CC(n1ncc(Nc2ncc3cc(Cl)c([C@@H]4CCN(C5COC5)C[C@H]4F)cc3n2)c1Cl)C(C)(C)O (single isomer, unassigned) [Ex-4.65, (R)(3S,4S) or (R)(3R,4R) or (S)(3S,4S) or (S)(3R,4R) 3-[5-chloro-4-({6-chloro-7-[3-fluoro-1-(oxetan-3-yl)piperidin-4-yl]quinazolin-2-yl}amino)-1H-pyrazol-1-yl]-2-methylbutan-2-ol] | 8.91 | –
14 | CC(n1ncc(Nc2ncc3cc(Cl)c([C@H]4CCN(C)C[C@@H]4F)cc3n2)c1Cl)C(C)(C)O (single isomer, unassigned) [Ex-4.66, (R)(3S,4S) or (R)(3R,4R) or (S)(3S,4S) or (S)(3R,4R) 3-(5-chloro-4-{[6-chloro-7-(3-fluoro-1-methylpiperidin-4-yl)quinazolin-2-yl]amino}-1H-pyrazol-1-yl)-2-methylbutan-2-ol] | 8.70 | –
15 | CC(n1ncc(Nc2ncc3cc(Cl)c(C4CCN(C5COC5)CC4)cc3n2)c1Cl)C(C)(C)O (single isomer, unassigned) [Ex-4.67, (S) or (R) 3-[5-chloro-4-({6-chloro-7-[1-(oxetan-3-yl)piperidin-4-yl]quinazolin-2-yl}amino)-1H-pyrazol-1-yl]-2-methylbutan-2-ol] | – | < 0.631
16 | CC(n1ncc(Nc2ncc3cc(Cl)c([C@H]4CCN(C)C[C@@H]4F)cc3n2)c1Cl)C(C)(C)O (single isomer, unassigned) [Ex-4.68, (R)(3S,4S) or (R)(3R,4R) or (S)(3S,4S) or (S)(3R,4R) 3-(5-chloro-4-{[6-chloro-7-(3-fluoro-1-methylpiperidin-4-yl)quinazolin-2-yl]amino}-1H-pyrazol-1-yl)-2-methylbutan-2-ol] | 8.92 | –
17 | CC(n1ncc(Nc2ncc3cc(Cl)c([C@@H]4CCN(C5COC5)C[C@H]4F)cc3n2)c1Cl)C(C)(C)O (single isomer, unassigned) [Ex-4.69, (R)(3S,4S) or (R)(3R,4R) or (S)(3S,4S) or (S)(3R,4R) 3-[5-chloro-4-({6-chloro-7-[3-fluoro-1-(oxetan-3-yl)piperidin-4-yl]quinazolin-2-yl}amino)-1H-pyrazol-1-yl]-2-methylbutan-2-ol] | 9.13 | –
18 | CC1OCC1N1CC[C@@H](c2cc3nc(Nc4cnn(CC(C)(C)O)c4Cl)ncc3cc2Cl)[C@H](F)C1 (single isomer, unassigned) [Ex-4.70, (3S,4S)(2R,3R) or (3S,4S)(2S,3S) or (3R,4R)(2R,3R) or (3R,4R)(2S,3S) or (3R,4R)(2S,3R) or (3R,4R)(2R,3S) or (3S,4S)(2S,3R) or (3S,4S)(2R,3S) 1-[5-chloro-4-({6-chloro-7-[3-fluoro-1-(2-methyloxetan-3-yl)piperidin-4-yl]quinazolin-2-yl}amino)-1H-pyrazol-1-yl]-2-methylpropan-2-ol] | 7.92 | –
19 | CC1OCC1N1CC[C@@H](c2cc3nc(Nc4cnn(CC(C)(C)O)c4Cl)ncc3cc2Cl)[C@H](F)C1 (single isomer, unassigned) [Ex-4.71, (3S,4S)(2R,3R) or (3S,4S)(2S,3S) or (3R,4R)(2R,3R) or (3R,4R)(2S,3S) or (3R,4R)(2S,3R) or (3R,4R)(2R,3S) or (3S,4S)(2S,3R) or (3S,4S)(2R,3S) 1-[5-chloro-4-({6-chloro-7-[3-fluoro-1-(2-methyloxetan-3-yl)piperidin-4-yl]quinazolin-2-yl}amino)-1H-pyrazol-1-yl]-2-methylpropan-2-ol] | 7.74 | –
20 | CC1OCC1N1CC[C@H](c2cc3nc(Nc4cnn(CC(C)(C)O)c4Cl)ncc3cc2Cl)[C@@H](F)C1 (single isomer, unassigned) [Ex-4.73, (3S,4S)(2R,3R) or (3S,4S)(2S,3S) or (3R,4R)(2R,3R) or (3R,4R)(2S,3S) or (3R,4R)(2S,3R) or (3R,4R)(2R,3S) or (3S,4S)(2S,3R) or (3S,4S)(2R,3S) 1-[5-chloro-4-({6-chloro-7-[3-fluoro-1-(2-methyloxetan-3-yl)piperidin-4-yl]quinazolin-2-yl}amino)-1H-pyrazol-1-yl]-2-methylpropan-2-ol] | 9.13 | –
21 | CC1OCC1N1CC[C@H](c2cc3nc(Nc4cnn(CC(C)(C)O)c4Cl)ncc3cc2Cl)[C@@H](F)C1 (single isomer, unassigned) [Ex-4.74, (3S,4S)(2R,3R) or (3S,4S)(2S,3S) or (3R,4R)(2R,3R) or (3R,4R)(2S,3S) or (3R,4R)(2S,3R) or (3R,4R)(2R,3S) or (3S,4S)(2S,3R) or (3S,4S)(2R,3S) 1-[5-chloro-4-({6-chloro-7-[3-fluoro-1-(2-methyloxetan-3-yl)piperidin-4-yl]quinazolin-2-yl}amino)-1H-pyrazol-1-yl]-2-methylpropan-2-ol] | 9.19 | –
22 | CC1OCC1N1CCC(c2cc3nc(Nc4cnn(CC(C)(C)O)c4Cl)ncc3cc2Cl)CC1 (single isomer, unassigned) [Ex-4.75, (2R,3R) or (2S,3S) or (2S,3R) or (2R,3S) 1-[5-chloro-4-({6-chloro-7-[1-(2-methyloxetan-3-yl)piperidin-4-yl]quinazolin-2-yl}amino)-1H-pyrazol-1-yl]-2-methylpropan-2-ol] | 8.14 | –
